Patent publication US9458463B2, “Method for treatment of diabetes by a small molecule inhibitor for GRK5” (MAX-PLANCK-GESELLSCHAFT ZUR FÖRDERUNG DER WISSENSCHAFTEN …, priority 2010, dated 2016)

Target: T1, full length GRK5 (Homo sapiens, UniProt P34947)
T1 construct: 6/2 fold concentrated full length GRK5 (Millipore, #14-714) in reaction buffer; purchased Millipore 14-714
Assay: GRK5 kinase activity assay, ADP Glo Kinase Assay technology (Promega)
Type: biochemical
Settings: group II; for inhibition at 5 µM: final assay concentration 5 μM; for IC50: ADP Glo Kinase Assay (Table 9-B)
Method: The maximal compound assay concentration was set to 100 μM, representing the compound assay concentration used in the primary screen.
Increasing concentrations of GRK5 are incubated together with 100 μM ATP in the absence and presence of 10 μM casein in a reaction buffer. Within this incubation non-phosphorylated casein is converted into phosphorylated casein and ATP is converted into ADP. Thereafter nonconverted ATP is digested into AMP by addition of the ADP-Glo™ Reagent. Subsequently the ADP that is produced by GRK5 activity is phosphorylated back to ATP by addition of Promega Kinase Detection Reagent. These ATP levels serve as measure for the GRK5 activity and are quantified by a luciferase/luciferin reaction.
For GRK5 kinase activity assay, the following protocol was used:
The reaction buffer used was composed of: 20 mM MES pH 6.0, 1 mM DTT, 10 mM MgCl2, 0.01% Tween20 and the reaction volume was 6 μL.
Firstly 4 μL 6/4 fold concentrated substrate and 6/4 fold concentrated ATP in 1 fold concentrated reaction buffer are added to each well of the assay plate. Subsequently 67 nL […] concentrated test compound in 100% DMSO are added to each well except to C− and C+ wells using pin tool. Then 67 nL 100% DMSO are pipetted to C− (no kinase, no compound) and C+ (no compound) wells using pin-tool and 2 μL reaction buffer are added to C− wells. […] After incubation for 120 min. at room temperature 6 μL ADP-Glo™ Reagent (ADP Glo™ Kinase Assay Kit: Promega, V9101) are added to each well to stop the kinase reaction and deplete the unconsumed ATP. After a second incubation for 40 min. at room temperature 12 μL of Kinase Detection Reagent are added to convert ADP to ATP and start luciferase/luciferin reaction for detection of ATP. […] Finally, after incubation for 40 min at room temperature the luminescence intensity was measured.
The activity of the compounds was classified according to IC50 for binding sites of Grk5 into the following ranges:
8800 Customer compounds were screened for their ability to inhibit the enzymatic activity of GRK5. Screening was performed using the ADP Glo™ Kinase Assay technology (Promega). The small molecular weight compounds were delivered at 10 mM stock concentration and were tested at a final assay concentration of 100 μM.
IC50 values were determined in triplicates at 12 concentrations with a dilution factor of three. Triplicates were measured on three different assay plates. The maximal compound assay concentration was set to 100 μM representing the compound assay concentration used in the primary screen. A larger maximal compound assay concentration could not be achieved since the maximal compound concentration on the compound plates was 10 mM (>1% DMSO concentration in the assay).

T1 sequence (P34947 whole entry): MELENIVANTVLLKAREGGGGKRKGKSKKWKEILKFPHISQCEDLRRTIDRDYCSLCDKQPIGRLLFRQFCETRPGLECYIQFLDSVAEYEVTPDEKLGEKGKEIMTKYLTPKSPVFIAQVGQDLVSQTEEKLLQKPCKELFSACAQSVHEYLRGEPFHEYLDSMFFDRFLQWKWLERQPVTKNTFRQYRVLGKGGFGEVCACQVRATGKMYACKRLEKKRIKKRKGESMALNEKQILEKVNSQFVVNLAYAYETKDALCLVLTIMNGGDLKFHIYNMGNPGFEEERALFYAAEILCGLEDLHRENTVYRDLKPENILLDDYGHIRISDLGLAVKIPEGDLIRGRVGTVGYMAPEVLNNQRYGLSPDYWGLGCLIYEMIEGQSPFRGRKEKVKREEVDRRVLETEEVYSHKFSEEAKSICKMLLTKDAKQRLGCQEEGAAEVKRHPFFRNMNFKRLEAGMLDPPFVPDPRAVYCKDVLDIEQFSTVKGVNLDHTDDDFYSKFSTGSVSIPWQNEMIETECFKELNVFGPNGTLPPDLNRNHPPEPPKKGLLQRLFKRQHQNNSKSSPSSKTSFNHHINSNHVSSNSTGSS

| Structure (SMILES) | inhibition at 5 µM | IC50 |
| --- | --- | --- |
| Cc1[nH]c(/C=C2\C(=O)Nc3ccc(C(=O)O)cc32)c(C)c1C(=O)NC(C)C(=O)O (stereo in doubt) [II.148, (3Z)-3-[4-(1-carboxy-(1R)-ethylcarbamoyl)-3,5-dimethyl-1H-pyrrol-2-ylmethylene]-2-oxo-2,3-dihydro-1H-indole-5-carboxylic acid] | 48% | – |
| Cc1[nH]c(/C=C2\C(=O)Nc3ccc(C(=O)O)cc32)c(C)c1C(=O)NC(Cc1ccccc1)C(=O)O (stereo in doubt) [II.153, (3Z)-3-[4-((1R)-1-carboxy-2-phenyl-ethylcarbamoyl)-3,5-dimethyl-1H-pyrrol-2-ylmethylene]-2-oxo-2,3-dihydro-1H-indole-5-carboxylic acid] | 56% | – |
| Cc1[nH]c(/C=C2\C(=O)Nc3ccc(C(=O)O)cc32)c(C)c1C(=O)NCCN1CCCC1 [II.2] | – | 1000 to 2000 nM |
| CC[C@H](NC(=O)c1ccc2c(c1)/C(=C/c1ccc(C(=O)N3CCN(C)CC3)cc1)C(=O)N2)c1ccccc1 [II.58, (3Z)-3-{4-[(4-methylpiperazin-1-yl)carbonyl]benzylidene}-2-oxo-N-[(1S)-1-phenylpropyl]indoline-5-carboxamide] | 96% | – |
| Cc1[nH]c(/C=C2\C(=O)Nc3ccc(C(=O)N[C@H](C)c4ccc(Cl)cc4)cc32)c(C)c1C(=O)N1CCCCC1 [II.66, (3Z)-N-[(1R)-1-(4-chlorophenyl)ethyl]-3-{[3,5-dimethyl-4-(piperidin-1-ylcarbonyl)-1H-pyrrol-2-yl]methylene}-2-oxoindoline-5-carboxamide] | 76% | – |
| C[C@@H](NC(=O)c1ccc2c(c1)/C(=C/Nc1ccc(CN3CCCCC3)cc1)C(=O)N2)C1CCCCC1 [II.77, (3Z)-N-[(1R)-1-cyclohexylethyl]-2-oxo-3-({[4-(piperidin-1-ylmethyl)phenyl]amino}methylene)indoline-5-carboxamide] | 98% | – |
| CCC(NC(=O)c1ccc2c(c1)/C(=C/c1[nH]c(C)c(CCC(=O)O)c1C)C(=O)N2)c1cccc(Cl)c1 (stereo not drawn) [II.134, (3Z)-3-(5-{5-[1-(3-chloro-phenyl)-propylcarbamoyl]-2-oxo-1,2-dihydro-indol-3-ylidenemethyl}-2,4-dimethyl-1H-pyrrol-3-yl)-propionic acid] | – | 1000 to 2000 nM |
| Cc1[nH]c(/C=C2\C(=O)Nc3ccc(C(=O)O)cc32)c(C)c1C(=O)N[C@H](C)c1ccccc1 [II.137, (3Z)-3-[3,5-dimethyl-4-((1R)-1-phenyl-ethylcarbamoyl)-1H-pyrrol-2-ylmethylene]-2-oxo-2,3-dihydro-1H-indole-5-carboxylic acid] | – | 100 to 1000 nM |
| CCOC(=O)c1c(C)[nH]c(/C=C2\C(=O)Nc3ccc(C(=O)N[C@@H](Cc4ccccc4)C(=O)OC)cc32)c1C [II.157, (3Z)-5-[5-((1S)-1-methoxycarbonyl-2-phenyl-ethylcarbamoyl)-2-oxo-1,2-dihydro-indol-3-ylidenemethyl]-2,4-dimethyl-1H-pyrrole-3-carboxylic II. acid ester ethyl] | 74% | – |
| COC(=O)CC[C@H](NC(=O)c1c(C)[nH]c(/C=C2\C(=O)Nc3ccc(C(=O)N[C@@H](Cc4ccccc4)C(=O)OC)cc32)c1C)C(=O)OC [II.167, (3Z)-2-({5-[5-((1S)-1-methoxycarbonyl-2-phenyl-ethylcarbamoyl)-2-oxo-1,2-dihydro-indol-3-ylidenemethyl]-2,4-dimethyl-1H-pyrrole-3-carbonyl}-amino)-(S)-pentanedioic acid dimethyl ester] | 81% | – |
| COc1ccc([C@@H](C)NC(=O)c2ccc3c(c2)/C(=C/c2[nH]c(C)cc2C)C(=O)N3)cc1 [II.170, (3Z)-3-(3,5-dimethyl-1H-pyrrol-2-ylmethylene)-2-oxo-2,3-dihydro-1H-indole-5-carboxylic acid [(1R)-1-(4-methoxy-phenyl)-ethyl]-amide] | 58% | – |
| CC[C@@H](NC(=O)c1ccc2c(c1)/C(=C/c1[nH]c(C)c(C(=O)N3CCN(C4CCN(C)CC4)CC3)c1C)C(=O)N2)c1ccccc1 [II.181, (3Z)-3-{3,5-dimethyl-4-[4-(1-methyl-piperidin-4-yl)-piperazine-1-carbonyyl]-1H-pyrrol-2-ylmethylene}-2-oxo-2,3-dihydro-1H-indole-5-carboxylic acid ((1R)-1-phenyl-propyl)-amide] | 49% | – |
| Cc1[nH]c(/C=C2\C(=O)Nc3ccc(C(=O)NCc4c(F)ccc(Cl)c4F)cc32)c(C)c1C(=O)N1CCC[C@H]1CN1CCCC1 [II.187, (3Z)-3-[3,5-dimethyl-4-((2S)-2-pyrrolidin-1-ylmethyl-pyrrolidine-1-carbonyl)-1H-pyrrol-2-ylmethylene]-2-oxo-2,3-dihydro-1H-indole-5-carboxylic acid 3-chloro-2,6-difluoro-benzylamide] | 76% | – |
| Cc1[nH]c(/C=C2\C(=O)Nc3ccc(C(=O)NCc4c(F)cccc4F)cc32)c(C)c1C(=O)N1CCC[C@H]1CN1CCCC1 [II.189, (3Z)-3-[3,5-dimethyl-4-((2S)-2-pyrrolidin-1-ylmethyl-pyrrolidine-1-carbonyl)-1H-pyrrol-2-ylmethylene]-2-oxo-2,3-dihydro-1H-indole-5-carboxylic acid 2,6-difluoro-benzylamide] | 98% | – |
| Cc1[nH]c(/C=C2\C(=O)Nc3ccc(C(=O)NCc4c(F)cccc4F)cc32)c(C)c1C(=O)N1CC[C@H](N(C)C)C1 [II.190, (3Z)-3-[4-((3S)-3-dimethylamino-pyrrolidine-1-carbonyl)-3,5-dimethyl-1H-pyrrol-2-ylmethylene]-2-oxo-2,3-dihydro-1H-indole-5-carboxylic acid 2,6-difluoro-benzylamide] | 61% | – |
| Cc1[nH]c(/C=C2\C(=O)Nc3ccc(C(=O)NCc4c(F)cccc4F)cc32)c(C)c1C(=O)N1CCC[C@@H]1CN1CCCC1 [II.191, (3Z)-3-[3,5-dimethyl-4-((2R)-2-pyrrolidin-1-ylmethyl-pyrrolidine-1-carbonyl)-1H-pyrrol-2-ylmethylene]-2-oxo-2,3-dihydro-1H-indole-5-carboxylic acid 2,6-difluoro-benzylamide] | 66% | – |
| Cc1[nH]c(/C=C2\C(=O)Nc3ccc(C(=O)NCc4c(F)cccc4F)cc32)c(C)c1C(=O)NCCN1CCCCC1 [II.192, (3Z)-3-[3,5-dimethyl-4-(2-piperidin-1-yl-ethylcarbamoyl)-1H-pyrrol-2-ylmethylene]-2-oxo-2,3-dihydro-1H-indole-5-carboxylic acid 2,6-difluoro-benzylamide] | 86% | – |
| COc1ccc([C@@H](C)NC(=O)c2ccc3c(c2)/C(=C/c2c[nH]c4ccccc24)C(=O)N3)cc1 [II.193, (3Z)-3-(1H-indol-3-ylmethylene)-2-oxo-2,3-dihydro-1H-indole-5-carboxylic acid [(1R)-1-(4-methoxy-phenyl)-ethyl]-amide] | 88% | – |
